tested on: not given; experiment: not given; details: not given

melting point | SMILES
167.5 to 169 °C | CCOCc1nc2c(N)nc3cc(-n4ccnc4)ccc3c2n1CCCOC [Example 473, 2-Ethoxymethyl-7-(imidazol-1-yl)-1-(3-methoxypropyl)-1H-imidazo[4,5-c]quinolin-4-amine]
254 to 255 °C | CCOCc1nc2c(N)nc3cc(-c4cccc(CS(N)(=O)=O)c4)ccc3c2n1CC1CCOCC1 [Example 480, {3-[4-Amino-2-ethoxymethyl-1-(tetrahydropyran-4-ylmethyl)-1H-imidazo[4,5-c]quinolin-7-yl]phenyl}methanesulfonamide]
199 to 201 °C | CCOCc1nc2c(N)nc3c(-c4cccnc4)cccc3c2n1CC(C)(C)O [Example 485, 1-[4-Amino-2-ethoxymethyl-6-(pyridin-3-yl)-1H-imidazo[4,5-c]quinolin-1-yl]-2-methylpropan-2-ol]
155 to 156 °C | CCOCc1nc2c(N)nc3cc(-c4cccnc4)ccc3c2n1C[C@@H]1COC(C)(C)O1 [Example 487, (R)-1-[(2,2-Dimethyl-1,3-dioxolan-4-yl)methyl]-2-ethoxymethyl-7-(pyridin-3-yl)-1H-imidazo[4,5-c]quinolin-4-amine]
202 to 204 °C | CCOCc1nc2c(N)nc3cc(-c4cccnc4)ccc3c2n1C[C@@H](O)CO [Example 488, (R)-3-[4-Amino-2-ethoxymethyl-7-(pyridin-3-yl)-1H-imidazo[4,5-c]quinolin-1-yl]propane-1,2-diol]
157 to 158 °C | CCOCc1nc2c(N)nc3cc(-c4cccnc4)ccc3c2n1C[C@H]1COC(C)(C)O1 [Example 489, (S)-1-[(2,2-Dimethyl-1,3-dioxolan-4-yl)methyl]-2-ethoxymethyl-7-(pyridin-3-yl)-1H-imidazo[4,5-c]quinolin-4-amine]
203 to 204 °C | CCOCc1nc2c(N)nc3cc(-c4cccnc4)ccc3c2n1C[C@H](O)CO [Example 490, (S)-3-[4-Amino-2-ethoxymethyl-7-(pyridin-3-yl)-1H-imidazo[4,5-c]quinolin-1-yl]propane-1,2-diol]
152 to 154 °C | CCOCc1nc2c(N)nc3cc(-c4cccnc4)ccc3c2n1CC1CCCCN1S(C)(=O)=O (stereo not drawn) [Example 492, 2-Ethoxymethyl-1-{[1-(methanesulfonyl)piperidin-2-yl]methyl}-7-(pyridin-3-yl)-1H-imidazo[4,5-c]quinolin-4-amine]
228 to 229 °C | CCOCc1nc2c(N)nc3cc(-c4cccnc4)ccc3c2n1Cc1ccc(CNS(C)(=O)=O)cc1 [Example 493, N-{4-[4-Amino-2-ethoxymethyl-7-(pyridin-3-yl)-1H-imidazo[4,5-c]quinolin-1-ylmethyl]benzyl}methanesulfonamide]

The remaining lines, values behind:

SMILES | melting point
CC(C)Cn1cnc2c(N)nc3ccc(-c4cccnc4)cc3c21 [Example 14, 1-Isobutyl-8-(pyridin-3-yl)-1H-imidazo[4,5-c]quinolin-4-amine] | 244 to 246 °C
CC(C)Cn1cnc2c(N)nc3ccc(-c4ccccc4)cc3c21 [Example 15, 1-Isobutyl-8-phenyl-1H-imidazo[4,5-c]quinolin-4-amine] | 203 to 204 °C
CCOCc1nc2c(N)nc3cc(-n4cccn4)ccc3c2n1CCCOC [Example 472, 2-Ethloxymethyl-1-(3-methoxypropyl)-7-(pyrazol-1-yl)-1H-imidazo[4,5-c]quinolin-4-amine] | 159 to 160 °C
CCOCc1nc2c(N)nc3cc(-c4ccc(-c5ccc6c(c5)nc(N)c5nc(COCC)n(CC(C)(C)O)c56)cc4)ccc3c2n1CC(C)(C)O [Example 474, 1-(4-Amino-7-{4-[4-amino-2-ethoxymethyl-1-(2-hydroxy-2-methylpropyl)-1H-imidazo[4,5-c]quinolin-7-yl]phenyl}-2-ethoxymethyl-1H-imidazo[4,5-c]quinolin-1-yl)-2-methylpropan-2-ol] | 325 to 328 °C
CCCCCCC1(CCCCCC)c2cc(-c3ccc4c(c3)nc(N)c3nc(COCC)n(CC(C)(C)O)c34)ccc2-c2ccc(-c3ccc4c(c3)nc(N)c3nc(COCC)n(CC(C)(C)O)c34)cc21 [Example 475, 1-(4-Amino-7-{7-[4-amino-2-ethoxymethyl-1-(2-hydroxy-2-methylpropyl)-1H-imidazo[4,5-c]quinolin-7-yl]-9,9-dihexyl-9H-fluoren-2-yl}-2-ethoxymethyl-1H-imidazo[4,5-c]quinolin-1-yl)-2-methylpropan-2-ol] | 261 to 265 °C
CCCCCCC1(CCCCCC)c2cc(-c3ccc4c(c3)nc(N)c3nc(CCOC)n(CCCN5CCCC5=O)c34)ccc2-c2ccc(-c3ccc4c(c3)nc(N)c3nc(CCOC)n(CCCN5CCCC5=O)c34)cc21 [Example 476, 1-[4-Amino-7-(7-{4-amino-2-(2-methoxyethyl)-1-[3-(pyrrolidin-2-one)propyl]-1H-imidazo[[4,5-c]quinolin-7-yl}-9,9-dihexyl-9H-fluoren-2-yl)-2-(2-methoxyethyl)-1H-imidazo[4,5-c]quinolin-1-yl]propyl}pyrrolidin-2-one] | 251 to 254 °C
CC(C)Cn1cnc2c(N)nc3ccc(-n4cccc4)cc3c21 [Example 481, 1-(2-Methylpropyl)-8-(1-pyrrolyl)-1H-imidazo[4,5-c]quinolin-4-amine] | 227.5 to 231.5 °C
CC(C)Cn1cnc2c(N)nc3cccc(-c4ccccc4)c3c21 [Example 482, 1-(2-Methylpropyl)-9-phenyl-1H-imidazo[4,5-c]quinolin-4-amine] | 263 to 265 °C
CCCOc1ccc(-c2cccc3nc(N)c4ncn(CC(C)C)c4c23)cc1 [Example 483, 1-(2-Methylpropyl)-9-(4-propoxyphenyl)-1H-imidazo[4,5-c]quinolin-4-amine] | 181 to 182 °C
CCOCc1nc2c(N)nc3c(-c4cccc(CS(N)(=O)=O)c4)cccc3c2n1CC(C)(C)O [Example 484, {3-[4-Amino-2-ethoxymethyl-1-(2-hydroxy-2-methylpropyl)-1H-imidazo[4,5-c]quinolin-6-yl]phenyl}methanesulfonamide] | 234 to 235 °C
CCOCc1nc2c(N)nc3c(-c4cccc(C(=O)N5CCOCC5)c4)cccc3c2n1CC(C)(C)O [Example 486, {3-[4-Amino-2-ethoxymethyl-1-(2-hydroxy-2-methylpropyl)-1H-imidazo[4,5-c]quinolin-6-yl]phenyl}morpholin-4-ylmethanone] | 164 to 166 °C
CCOCc1nc2c(N)nc3cc(-c4cccnc4)ccc3c2n1CCCCNC(=O)c1ccc(C(OCCN(C)C)c2ccccc2)cc1 (stereo not drawn) [Example 494, N-[4-(4-Amino-2-ethoxymethyl-7-(pyridin-3-yl)imidazo[4,5-c]quinolin-1-yl)butyl]-4-[(2-dimethylaminoethoxy)phenylmethyl]benzamide] | 157 to 161 °C

tested on: tumor necrosis factor-α (TNF-α) production in mouse macrophage cell line Raw 264.7; experiment: TNF-α inhibition in mouse cells, single concentration assay (LPS-stimulated Raw 264.7); format: cell-based; details: Raw 264.7 cells stimulated by LPS (EC70), compound 5 μM (single concentration) or 0.03-10 μM (dose response), 18 to 24 hours, ELISA
Description: The compounds of Formulas I and II are useful as immune response modifiers (IRMs) due to their ability to modulate cytokine biosynthesis (e.g., induce or inhibit the biosynthesis or production of one or more cytokines) and otherwise modulate the immune response when administered to animals. Compounds can be tested per the test procedures described in the Examples Section. Compounds can be tested for induction of cytokine biosynthesis by incubating human PBMC in a culture with the compound(s) at a concentration range of 30 to 0.014 μM and analyzing for interferon (α) or tumor necrosis factor (α) in the culture supernatant. Compounds can be tested for inhibition of cytokine biosynthesis by incubating mouse macrophage cell line Raw 264.7 in a culture with the compound(s) at a single concentration of, for example, 5 μM and analyzing for tumor necrosis factor (α) in the culture supernatant. Compounds can be further tested for dose response by running the test at several compound concentrations, for example, 0.03, 0.1, 0.3, 1, 3, 5, and 10 μM. The ability to modulate cytokine biosynthesis makes the compounds useful in the treatment of a variety of conditions such as viral diseases, neoplastic diseases, and autoimmune diseases that are responsive to such changes in the immune response.
The mouse macrophage cell line Raw 264.7 is used to assess the ability of compounds to inhibit tumor necrosis factor-α (TNF-α) production upon stimulation by lipopolysaccharide (LPS).
Raw cells (ATCC) are harvested by gentle scraping and then counted. The cell suspension is brought to 3×10^5 cells/mL in RPMI with 10% fetal bovine serum (FBS). […]
The compounds are solubilized in dimethyl sulfoxide (DMSO). […] LPS (Lipopolysaccaride from Salmonella typhimurium, Sigma-Aldrich) is diluted with colorless RPMI to the EC70 concentration as measured by a dose response assay. […]
Following the incubation the supernatant is removed with a pipet. TNF-α concentration is determined by ELISA using a mouse TNF-α kit (from Biosource International, Camarillo, Calif.). […]

SMILES | modulate cytokine biosynthesis by inhibiting production of tumor necrosis factor α (TNF-α)
CC(C)Cn1cnc2c(N)nc3ccc(-c4cccnc4)cc3c21 [Example 14, 1-Isobutyl-8-(pyridin-3-yl)-1H-imidazo[4,5-c]quinolin-4-amine] | inhibiting production of tumor necrosis factor α (TNF-α)
CC(C)Cn1cnc2c(N)nc3ccc(-c4ccccc4)cc3c21 [Example 15, 1-Isobutyl-8-phenyl-1H-imidazo[4,5-c]quinolin-4-amine] | inhibiting production of tumor necrosis factor α (TNF-α)
CC(C)Cn1cnc2c(N)nc3ccc(-n4cccc4)cc3c21 [Example 481, 1-(2-Methylpropyl)-8-(1-pyrrolyl)-1H-imidazo[4,5-c]quinolin-4-amine] | inhibiting production of tumor necrosis factor α (TNF-α)

From patent US7598382B2, “Aryl substituted imidazoquinolines” (Coley Pharmaceutical Group, Inc., priority 2002, dated 2009)
